From ChEMBL document CHEMBL1154885, “Heat shock protein 90: inhibitors in clinical trials” (J Med Chem, 2010)

Key:
animal or person [1] = details: Homo sapiens, CWR22, po, read-out: TGI
Description: Antitumor activity against human CWR22 cells xenografted in BALB/c mouse at 120 mg/kg, po administered in QDx5 schedule

NCI-N87 = assay: animal or person; details: Mus musculus, NCI-N87, po, read-out: TGI
Description: Antitumor activity against human NCI-N87 cells xenografted in BALB/c mouse at 125 mg/kg, po administered in QDx5 schedule

BT-474 [2] = assay: animal or person; details: Mus musculus, BT-474, po, read-out: TGI
Description: Antitumor activity against human BT474 cells xenografted in BALB/c mouse at 120 mg/kg, po administered in QDx5 schedule

SK-OV-3 = assay: animal or person; details: Mus musculus, SK-OV-3, po, read-out: TGI
Description: Antitumor activity against human SKOV3 cells xenografted in BALB/c mouse at 124 mg/kg, po administered in QDx5 schedule

[3] = Tmax in mouse at 100 mg/kg, po; format: ADME, organism-based; set-up: dose 100 mg/kg, route oral; details: in vivo
Mus musculus [4] = assay: Toxicity in BALB/c mouse assessed as body weight loss at 125 mg/kg, po administered in QDx5 schedule; format: organism-based; set-up: dose 125 mg/kg, route oral; details: in vivo
[5] = AUC in mouse at 100 mg/kg, po; format: ADME, organism-based; set-up: dose 100 mg/kg, route oral; details: plasma
PANC-1 = assay: animal or person; details: Mus musculus, PANC-1, po, read-out: TGI
Description: Antitumor activity against human PANC1 cells xenografted in BALB/c mouse at 124 mg/kg, po administered in QDx5 schedule

animal or person [6] = details: Homo sapiens, U-87 MG, po, read-out: TGI
Description: Antitumor activity against human U87 cells xenografted in BALB/c mouse at 75 mg/kg, po administered in BIDx5 schedule

[7] = Cmax in mouse at 100 mg/kg, po; format: ADME, organism-based; set-up: dose 100 mg/kg, route oral; details: in vivo
[8] = Half life in mouse at 100 mg/kg, po; format: ADME, organism-based; set-up: dose 100 mg/kg, route oral; details: in vivo
[9] = Half life in plasma of mouse bearing human MM1S cells at 50 mg/kg; format: ADME, organism-based; set-up: dose 50 mg/kg
[10] = Half life in tumor of mouse bearing human MM1S cells at 50 mg/kg; format: ADME, organism-based, Neoplasm; set-up: dose 50 mg/kg
Plasma [11] = assay: Clearance in plasma of mouse bearing human WM266.4 cells at 50 mg/kg, iv; format: ADME, organism-based; set-up: dose 50 mg/kg, route intravenous; details: in vivo
[12] = Clearance in tumor of mouse bearing human WM266.4 cells at 50 mg/kg, iv; format: ADME, organism-based, Neoplasm; set-up: dose 50 mg/kg, route intravenous; details: in vivo
[13] = Apparent volume of distribution in tumor of mouse bearing human WM266.4 cells at 50 mg/kg, iv; format: ADME, organism-based, Neoplasm; set-up: dose 50 mg/kg, route intravenous; details: read-out: Vz
Plasma [14] = assay: Apparent volume of distribution in plasma of mouse bearing human WM266.4 cells at 50 mg/kg, ip; format: ADME, organism-based; set-up: dose 50 mg/kg, route intraperitoneal; details: in vivo
[15] = Cmax in tumor of mouse bearing human WM266.4 cells at 50 mg/kg, iv; format: ADME, organism-based, Neoplasm; set-up: dose 50 mg/kg, route intravenous; details: read-out: Cmax_tumor
[16] = Apparent volume of distribution in tumor of mouse bearing human WM266.4 cells at 50 mg/kg, ip; format: ADME, organism-based, Neoplasm; set-up: dose 50 mg/kg, route intraperitoneal; details: in vivo
Mus musculus [17] = assay: Toxicity in mouse assessed as body weight loss at 70 mg/kg, ip after 8 days; format: organism-based; set-up: dose 70 mg/kg, route intraperitoneal; details: in vivo, 192 h
[18] = Cmax in plasma of mouse bearing human WM266.4 cells at 50 mg/kg, ip; format: ADME, organism-based; set-up: dose 50 mg/kg, route intraperitoneal
[19] = AUC in plasma of mouse bearing human WM266.4 cells at 50 mg/kg, ip; format: ADME, organism-based; set-up: dose 50 mg/kg, route intraperitoneal
Mus musculus [20] = assay: Hepatic blood flow in mouse bearing human WM266.4 cells at 50 mg/kg, ip; format: ADME, organism-based, Liver; set-up: dose 50 mg/kg, route intraperitoneal; details: in vivo
[21] = Half life in plasma of mouse bearing human WM266.4 cells at 50 mg/kg, ip; format: ADME, organism-based; set-up: dose 50 mg/kg, route intraperitoneal
[22] = Metabolic stability in mouse liver microsomes assessed as drug remaining after 30 mins; format: ADME, Microsome; details: read-out: Stability
[23] = Clearance in tumor of mouse bearing human WM266.4 cells at 50 mg/kg, ip; format: ADME, organism-based, Neoplasm; set-up: dose 50 mg/kg, route intraperitoneal; details: in vivo
[24] = Half life in tumor of mouse bearing human WM266.4 cells at 50 mg/kg, iv; format: ADME, organism-based, Neoplasm; set-up: dose 50 mg/kg, route intravenous
[25] = AUC in plasma of mouse bearing human WM266.4 cells at 50 mg/kg, iv; format: ADME, organism-based; set-up: dose 50 mg/kg, route intravenous
[26] = Half life in tumor of mouse bearing human WM266.4 cells at 50 mg/kg, ip; format: ADME, organism-based, Neoplasm; set-up: dose 50 mg/kg, route intraperitoneal
BT-474 [27] = assay: Antitumor activity against human BT474 cells xenografted in mouse at 50 mg/kg, ip; format: functional; details: BT-474, ip, route intraperitoneal, read-out: TGI
[28] = Drug level in tumor of mouse bearing human WM266.4 cells at 50 mg/kg, ip administered once daily for 5 days measured after 24 hrs after final dose; format: ADME, organism-based, Neoplasm; set-up: dose 50 mg/kg, route intraperitoneal; details: read-out: Drug uptake
Plasma [29] = assay: Half life in plasma of mouse bearing human WM266.4 cells at 50 mg/kg, iv; format: ADME, organism-based; set-up: dose 50 mg/kg, route intravenous; details: in vivo
[30] = Metabolic stability in human liver microsomes assessed as drug remaining after 30 mins; format: ADME, Microsome; details: read-out: Stability
[31] = AUC in tumor of mouse bearing human WM266.4 cells at 50 mg/kg, iv; format: ADME, organism-based, Neoplasm; set-up: dose 50 mg/kg, route intravenous
[32] = Toxicity in mouse assessed as maximum tolerated dose; format: organism-based; details: in vivo
Plasma [33] = assay: Apparent volume of distribution in plasma of mouse bearing human WM266.4 cells at 50 mg/kg, iv; format: ADME, organism-based; set-up: dose 50 mg/kg, route intravenous; details: in vivo
[34] = AUC in tumor of mouse bearing human WM266.4 cells at 50 mg/kg, ip; format: ADME, organism-based, Neoplasm; set-up: dose 50 mg/kg, route intraperitoneal
[35] = Cmax in plasma of mouse bearing human WM266.4 cells at 50 mg/kg, iv; format: ADME, organism-based; set-up: dose 50 mg/kg, route intravenous
[36] = Cmax in tumor of mouse bearing human WM266.4 cells at 50 mg/kg, ip; format: ADME, organism-based, Neoplasm; set-up: dose 50 mg/kg, route intraperitoneal; details: read-out: Cmax_tumor
[37] = Clearance in plasma of mouse bearing human WM266.4 cells at 50 mg/kg, ip; format: ADME, organism-based; set-up: dose 50 mg/kg, route intraperitoneal
[38] = Antitumor activity against human U87MG cells xenografted in mouse assessed as tumor regression at 50 mg/kg, ip; format: functional, U-87MG ATCC; details: route intraperitoneal

## COc1c(C)cnc(Cn2cnc3c(Cl)nc(N)nc32)c1C [BIIB021]
Animal or person [1]
  inhibition in vivo at 120 mg/kg: 85%
NCI-N87
  inhibition in vivo at 125 mg/kg: 87%
BT-474 [2]
  inhibition in vivo at 120 mg/kg: 94%
SK-OV-3
  inhibition in vivo at 124 mg/kg: 67%
[3]
  Tmax: 6 min
Mus musculus [4]
  Activity: 3%
[5]
  AUC: 15 µM·h
PANC-1
  inhibition in vivo at 124 mg/kg: 51%
Animal or person [6]
  inhibition in vivo at 75 mg/kg: 70%
[7]
  Cmax: 31 µM
[8]
  half-life: 0.8 h

## CC1(C)CC(=O)c2c(C(F)(F)F)nn(-c3ccc(C(N)=O)c(N[C@H]4CC[C@H](O)CC4)c3)c2C1 [SNX-2112]
[9]
  half-life: 3 h
[10]
  half-life: 10 h

## CCNC(=O)c1noc(-c2cc(C(C)C)c(O)cc2O)c1-c1ccc(CN2CCOCC2)cc1 [LUMINESPIB]
Plasma [11]
  CL: 0.143 L/h
[12]
  CL: 0.02 L/h
[13]
  Vd: 0.44 L
Plasma [14]
  Vz: 0.077 L
[15]
  Cmax: 14 µM
[16]
  Vz: 0.883 L
Mus musculus [17]
  Activity: 10%
[18]
  Cmax: 53 µM
[19]
  AUC: 26 µM·h
Mus musculus [20]
  LBF: 108 mL/h
[21]
  half-life: 1 h
[22]
  remaining at 0.5 h: 31%
[23]
  CL: 0.41 L/h
[24]
  half-life: 15 h
[25]
  AUC: 15 µM·h
[26]
  half-life: 15 h
BT-474 [27]
  inhibition in vivo at 50 mg/kg: 79%
[28]
  concentration at 24 h: 6.8 µM
Plasma [29]
  t1/2: 1 h
[30]
  remaining at 0.5 h: 41%
[31]
  AUC: 70 µM·h
[32]
  MTD: 50 mg/kg
Plasma [33]
  Vz: 0.875 L
[34]
  AUC: 36 µM·h
[35]
  Cmax: 49 µM
[36]
  Cmax: 6 µM
[37]
  CL/F: 1.37 mL/min
[38]
  Activity: 58%
